The structures appear in SMILES notation. pIC50: −log10 of the molar value.

The target of assay [1] is T1, PCSK9 (Homo sapiens, UniProt Q8NBP7). As to the kind of experiment: Differential scanning calorimetry (DSC) assay, direct binding / thermal stabilization of PCSK9. The note with it: Tm(with compound)−Tm(no compound); 2 μM PCSK9, 300 μM test compound. Here is the method: Differential scanning calorimetry (DSC) was used as a biophysical method to confirm direct binding to PCSK9. A solution containing 2 μM PCSK9 with or without 300 μM test compound in 25 mM HEPES (pH 7.5)/150 mM NaCl/1 mM CaCl2/3.75% DMSO was transferred to the sample cell of the DSC instrument, while buffer alone was placed in the reference cell. Both cells were heated at a constant rate (200° C./hr) from 20-80° C. while recording the excess heat capacity of the sample cell relative to the reference cell. Each thermogram was analyzed to provide the melting temperature (Tm) of the protein.
T1 sequence (Q8NBP7 153-692): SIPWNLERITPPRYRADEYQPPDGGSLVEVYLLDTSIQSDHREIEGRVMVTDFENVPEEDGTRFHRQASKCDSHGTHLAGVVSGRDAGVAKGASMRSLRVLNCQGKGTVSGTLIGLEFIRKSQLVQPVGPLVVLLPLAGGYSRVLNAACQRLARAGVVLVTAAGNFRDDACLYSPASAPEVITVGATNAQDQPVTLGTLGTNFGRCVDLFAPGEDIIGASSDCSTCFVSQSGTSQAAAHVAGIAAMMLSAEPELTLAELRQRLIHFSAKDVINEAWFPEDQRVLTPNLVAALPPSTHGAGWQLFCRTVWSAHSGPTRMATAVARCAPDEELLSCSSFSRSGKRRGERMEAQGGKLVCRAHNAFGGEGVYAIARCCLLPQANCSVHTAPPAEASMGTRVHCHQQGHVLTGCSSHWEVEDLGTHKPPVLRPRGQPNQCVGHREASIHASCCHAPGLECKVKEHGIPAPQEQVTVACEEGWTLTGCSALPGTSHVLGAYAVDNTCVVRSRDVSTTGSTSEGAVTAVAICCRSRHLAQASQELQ
The higher the temperature shift generally, the higher the affinity.

Assay [2] has as its target T1, PCSK9. As to the kind of experiment: Fluorescence polarization competition binding assay (probe: compound of Example 57). The conditions noted are these: 2 μM PCSK9, 50 nM compound of Example 57 as probe, overnight incubation; read-out: FP IC. How it is done: Relative compound affinities were determined using a competition binding assay with a fluorescence polarization format. Solution (49 μL) containing 2 μM PCSK9 and 50 nM compound of Example 57 in 20 mM HEPES (pH 7.5)/150 mM NaCl/1 mM CaCl2/0.005% P-20 was dispensed to wells of a 384-well black non-binding microplate before the addition of 1 μL of test compound or DMSO. After mixing, the plate was centrifuged and sealed for overnight incubation in the dark. The anisotropy signal was read using a fluorescence polarization protocol on a Perkin-Elmer Envision plate reader. The % inhibition was determined relative to the window defined by the DMSO control wells and wells containing 50 nM probe in the absence of PCSK9.
A general note: In fluorescence polarisation assays a small probe gives low polarisation when free and higher when bound to something large.

With `COc1cccc(NC(=O)C[C@@]2(C)NCCc3cc(OC)c(Oc4cccc(F)c4)cc32)c1` [Example 11, (R)-2-(7-(3-fluorophenoxy)-6-methoxy-1-methyl-1,2,3,4-tetrahydroisoquinolin-1-yl)-N-(3-methoxyphenyl)acetamide], the ΔTm (in general, the shift of the melting midpoint relative to a reference) at 300 µM on PCSK9 [1] came out at 5.69 °C. On PCSK9 [2], the pIC50 was 6.12.
As to `C[C@]1(CC(=O)Nc2nccs2)NCCc2cc(OCc3ncccn3)c(Oc3ccc(C(=O)O)c(F)c3)cc21` [Example 68, (R)-2-fluoro-4-((1-methyl-1-(2-oxo-2-{thiazol-2-ylamino)ethyl)-6-(pyrimidin-2-ylmethoxy)-1,2,3,4-tetrahydroisoquinolin-7-yl)oxy)benzoic acid], the ΔTm at 300 µM at PCSK9 [1] was 7.56 °C. At PCSK9 [2], the pIC50 is 6.32.
For the compound `C[C@]1(CC(=O)Nc2cccnn2)NCCc2cc(OCC3CCCCO3)c(Oc3ccc(-c4ccc(C(=O)O)cc4)c(F)c3)cc21` (stereo partly drawn) [Example 91, 2′-fluoro-4′-(((1R)-1-methyl-1-(2-oxo-2-(pyridazin-3-ylamino)ethyl)-6-((tetrahydro-2H-pyran-2-yl)methoxy)-1,2,3,4-tetrahydroisoquinolin-7-yl)oxy)-[1,1′-biphenyl]-4-carboxylic acid], the ΔTm at 300 µM at PCSK9 [1] came out at 7.19 °C. Also, the pIC50 at PCSK9 [2] was 6.07.
On to `CC1(c2cn(CCOc3cc4c(cc3Oc3ccc(C(=O)O)c(F)c3)[C@@](C)(CC(=O)Nc3nccs3)NCC4)nn2)CCOC1` (stereo partly drawn) [Example 38, 2-fluoro-4-(((1R)-1-methyl-6-(2-(4-(3-methyltetrahydrofuran-3-yl)-1H-1,2,3-triazol-1-yl)ethoxy)-1-(2-oxo-2-(thiazol-2-ylamino)ethyl)-1,2,3,4-tetrahydroisoquinolin-7-yl)oxy)benzoic acid], for which the thermal shift (ΔTm) at 300 µM on PCSK9 [1] amounted to 7 °C. The pIC50 on PCSK9 [2] was 6.57.
The matching figures for `C[C@]1(CC(=O)Nc2nccs2)NCCc2cc(OCc3ccccn3)c(Oc3ccc(-c4ccc(C(=O)O)cc4)c(F)c3)cc21` [Example 18, (R)-2′-fluoro-4′-((1-methyl-1-(2-oxo-2-(thiazol-2-ylamino)ethyl)-6-(pyridin-2-ylmethoxy)-1,2,3,4-tetrahydroisoquinolin-7-yl)oxy)-[1,1′-biphenyl]-4-carboxylic acid]: 7.62 °C and 7.03.
In the case of `Cn1nccc1NC(=O)c1ccc(Oc2cc3c(cc2OCC2CCCCO2)CCN[C@]3(C)CC(=O)Nc2nccs2)cc1F` (stereo partly drawn) [Example 73, 2-fluoro-4-(((1R)-1-methyl-1-(2-oxo-2-(thiazol-2-ylamino)ethyl)-6-((tetrahydro-2H-pyran-2-yl)methoxy)-1,2,3,4-tetrahydroisoquinolin-7-yl)oxy)-N-(1-methyl-1H-pyrazol-5-yl)benzamide], on PCSK9 [1], the ΔTm at 300 µM was 6.66 °C. Moreover, at PCSK9 [2], the pIC50 was 6.20.
For `COc1cc2c(cc1Oc1ccc(-c3ccc(C(=O)O)c(F)c3)c(F)c1)[C@@](C)(CC(=O)Nc1nccs1)NCC2` [Example 27, (R)-2′,3-difluoro-4′-((6-methoxy-1-methyl-1-(2-oxo-2-(thiazol-2-ylamino)ethyl)-1,2,3,4-tetrahydroisoquinolin-7-yl)oxy)-[1,1′-biphenyl]-4-carboxylic acid], in that order: 7.11 °C and 6.41.
For the compound `COC(=O)c1ccc(Oc2cc3c(cc2OCCOCCNC(=O)CCC2=[N+]4C(=Cc5c(C)cc(C)n5[B-]4(F)F)C=C2)CCN[C@]3(C)CC(=O)Nc2nccs2)cc1F` [Example 61, methyl (R)-4-((6-(2-(2-(3-(5,5-difluoro-7,9-dimethyl-5H-4l4,5l4-dipyrrolo[1,2-c:2′,1′-f][1,3,2]diazaborinin-3-yl)propanamido)ethoxy)ethoxy)-1-methyl-1-(2-oxo-2-(thiazol-2-ylamino)ethyl)-1,2,3,4-tetrahydroisoquinolin-7-yl)oxy)-2-fluorobenzoate], on PCSK9 [1], the ΔTm at 300 µM was 2.87 °C.
Consider `C[C@]1(CC(=O)Nc2nccs2)NCCc2cc(OCc3ncccn3)c(Oc3ccc(-c4ccc(C(=O)O)cc4)c(F)c3)cc21` [Example 19, (R)-2′-fluoro-4′-((1-methyl-1-(2-oxo-2-(thiazol-2-ylamino)ethyl)-6-(pyrimidin-2-ylmethoxy)-1,2,3,4-tetrahydroisoquinolin-7-yl)oxy)-[1,1′-biphenyl]-4-carboxylic acid], for which the thermal shift (ΔTm) at 300 µM on PCSK9 [1] was determined as 9.05 °C. Also, on PCSK9 [2], the pIC50 was 6.79.
The matching figures for `C[C@]1(CC(=O)Nc2nccs2)NCCc2cc(OCCn3cc(COc4ccccc4)nn3)c(Oc3ccc(C(=O)O)c(F)c3)cc21` [Example 47, (R)-2-fluoro-4-((1-methyl-1-(2-oxo-2-(thiazol-2-ylamino)ethyl)-6-(2-(4-(phenoxymethyl)-1H-1,2,3-triazol-1-yl)ethoxy)-1,2,3,4-tetrahydroisoquinolin-7-yl)oxy)benzoic acid]: 6.27 °C and 6.19.
Regarding `C[C@]1(CC(=O)Nc2nccs2)NCCc2cc(OCCn3cc(C(O)CN)nn3)c(Oc3ccc(C(=O)O)c(F)c3)cc21` (stereo partly drawn) [Example 55, 4-(((1R)-6-(2-(4-(2-amino-1-hydroxyethyl)-1H-1,2,3-triazol-1-yl)ethoxy)-1-methyl-1-(2-oxo-2-(thiazol-2-ylamino)ethyl)-1,2,3,4-tetrahydroisoquinolin-7-yl)oxy)-2-fluorobenzoic acid], on PCSK9 [1], the ΔTm at 300 µM was 5.82 °C. Further, the pIC50 on PCSK9 [2] is 6.06.
`COCCOCc1cn(CCOc2cc3c(cc2Oc2ccc(C(=O)O)c(F)c2)[C@@](C)(CC(=O)Nc2nccs2)NCC3)nn1` [Example 41, (R)-2-fluoro-4-((6-(2-(4-((2-methoxyethoxy)methyl)-1H-1,2,3-triazol-1-yl)ethoxy)-1-methyl-1-(2-oxo-2-(thiazol-2-ylamino)ethyl)-1,2,3,4-tetrahydroisoquinolin-7-yl)oxy)benzoic acid]: at PCSK9 [1], the ΔTm at 300 µM was 7.18 °C. Moreover, the pIC50 at PCSK9 [2] was 6.45.
Turning to `C[C@]1(CC(=O)Nc2nccs2)NCCc2cc(OCCOCCNC(=O)CCCC[C@@H]3SC[C@@H]4NC(=O)N[C@@H]43)c(Oc3ccc(C(=O)O)cc3)cc21` [Example 60, 4-(((R)-1-methyl-1-(2-oxo-2-(thiazol-2-ylamino)ethyl)-6-(2-(2-(5-((3aS,4S,6aR)-2-oxohexahydro-1H-thieno[3,4-d]imidazol-4-yl)pentanamido)ethoxy)ethoxy)-1,2,3,4-tetrahydroisoquinolin-7-yl)oxy)benzoic acid], on PCSK9 [1], the ΔTm at 300 µM turned out to be 6.42 °C.
With `COc1cccc(NC(=O)C[C@@]2(C)NCCc3cc(OCC4CCCCO4)c(Oc4ccc(Br)c(F)c4)cc32)n1` (stereo partly drawn) [Example 87, 2-((1R)-7-(4-bromo-3-fluorophenoxy)-1-methyl-6-((tetrahydro-2H-pyran-2-yl)methoxy)-1,2,3,4-tetrahydroisoquinolin-1-yl)-N-(6-methoxypyridin-2-yl)acetamide], the ΔTm at 300 µM on PCSK9 [1] came to 6.57 °C. In addition, the pIC50 on PCSK9 [2] is 8.85.
Turning to `C[C@]1(CC(=O)Nc2nccs2)NCCc2cc(OCCOCCOCCNC(=O)CCCC[C@@H]3SC[C@@H]4NC(=O)N[C@@H]43)c(Oc3ccc(C(=O)O)cc3)cc21` [Example 58, 4-(((R)-1-methyl-1-(2-oxo-2-(thiazol-2-ylamino)ethyl)-6-(2-(2-(2-(5-((3aS,4S,6aR)-2-oxohexahydro-1H-thieno[3,4-d]imidazol-4-yl)pentanamido)ethoxy)ethoxy)ethoxy)-1,2,3,4-tetrahydroisoquinolin-7-yl)oxy)benzoic acid], the ΔTm at 300 µM on PCSK9 [1] worked out at 5.88 °C.
As to `COc1cc2c(cc1-c1ccc(F)c(C(=O)O)c1)[C@@](C)(CC(=O)Nc1nccs1)NCC2` [Example 112, (R)-2-fluoro-5-(6-methoxy-1-methyl-1-(2-oxo-2-(thiazol-2-ylamino)ethyl)-1,2,3,4-tetrahydroisoquinolin-7-yl)benzoic acid], the ΔTm at 300 µM at PCSK9 [1] is 6.8 °C.
Turning to `Cc1ncsc1-c1ccc(CNC(=O)[C@@H]2C[C@@H](O)CN2C(=O)[C@@H](NC(=O)COCC(=O)NCCOCCOc2cc3c(cc2Oc2ccc(-c4ccc(C(=O)O)cc4)c(F)c2)[C@@](C)(CC(=O)Nc2nccs2)NCC3)C(C)(C)C)cc1` [Example 105, 2′-fluoro-4′-(((R)-6-(((S)-13-((2S,4R)-4-hydroxy-2-((4-(4-methylthiazol-5-yl)benzyl)carbamoyl)pyrrolidine-1-carbonyl)-14,14-dimethyl-7,11-dioxo-3,9-dioxa-6,12-diazapentadecyl)oxy)-1-methyl-1-(2-oxo-2-(thiazol-2-ylamino)ethyl)-1,2,3,4-tetrahydroisoquinolin-7-yl)oxy)-[1,1′-biphenyl]-4-carboxylic acid], the pIC50 at PCSK9 [2] is 6.65.
On to `Cc1cc(C)n2c1C=C1C=CC(CCC(=O)NCCOCCOc3cc4c(cc3Oc3ccc(C(=O)O)cc3)[C@@](C)(CC(=O)Nc3nccs3)NCC4)=[N+]1[B-]2(F)F` [Example 59, (R)-4-((6-(2-(2-(3-(5,5-difluoro-7,9-dimethyl-5H-4l4,5l4-dipyrrolo[1,2-c:2′,1′-f][1,3,2]diazaborinin-3-yl)propanamido)ethoxy)ethoxy)-1-methyl-1-(2-oxo-2-(thiazol-2-ylamino)ethyl)-1,2,3,4-tetrahydroisoquinolin-7-yl)oxy)benzoic acid], for which the ΔTm at 300 µM at PCSK9 [1] is 5.15 °C.
As to `CC1=CC(C)=[N+]2C1=Cc1ccc(CCC(=O)NCCOCCOc3cc4c(cc3Oc3ccc(C(=O)O)c(F)c3)[C@@](C)(CC(=O)Nc3nccs3)NCC4)n1[B-]2(F)F` [Example 57], the “DSC ΔTm” value on PCSK9 [1] came to 6.15 °C.

The values above are taken from patent US11008313B2, “Substituted 1-methyl-1,2,3,4-tetrahydroisoquinoline molecules as PCSK9 allosteric binders” (Merck Sharp & Dohme Corp., priority 2016, dated 2021).
